Molecular target: T1, IGF-1R (Homo sapiens, UniProt P08069)
T1 construct: expressed in transfected cells
Experiment: Example B-2: IGF-1R Assay (PathHunter cell lines, EC80 agonist challenge, chemiluminescent detection)
Format: cell-based
Conditions: PathHunter cells, compound 60 minutes at 37° C., EC80 agonist 3 hours; read-out: IC50, Biological Activity against IGF-1R (Table B2)
Protocol: PathHunter cell lines were expanded from freezer stocks according to standard procedures. Cells were seeded in a total volume of 20 μL into white walled, 384-well microplates and incubated for the appropriate time prior to testing.
Cells are pre-incubated with compound followed by EC80 agonist challenge as follows: • R. 1. Intermediate dilution of sample stocks was performed to generate 5× sample in assay buffer. • 2. 5 μL of 5× sample was added to cells and incubated at 37° C. for 60 minutes. Vehicle concentration was 1%. • 3. 5 IL of 6× EC80 agonist in assay buffer was added to the cells and incubated at room temperature for 3 hours.
Assay signal was generated through a single addition of 12.5 or 15 μL (50% v/v) of PathHunter Detection reagent cocktail for agonist and antagonist assays respectively, followed by a one hour incubation at room temperature. Microplates were read following signal generation with a PerkinElmer Envision™ instrument for chemilumine-scent signal detection.
Compound activity was analyzed using CBIS data analysis suite (ChemInnovation, CA). Percentage inhibition was calculated using the following formula: % Inhibition=100%×(1−(mean RLU of test sample−mean RLU of vehicle control)/(mean RLU of EC80 control−mean RLU of vehicle control)). The activity for representative examples of the invention is shown in the following table, wherein A: IC50≤500 nM; B: 500 nM<IC50≤2 μM; C: 2 μM<IC50≤10 μM; D: IC50>10 μM.

T1 sequence (P08069 31-1367): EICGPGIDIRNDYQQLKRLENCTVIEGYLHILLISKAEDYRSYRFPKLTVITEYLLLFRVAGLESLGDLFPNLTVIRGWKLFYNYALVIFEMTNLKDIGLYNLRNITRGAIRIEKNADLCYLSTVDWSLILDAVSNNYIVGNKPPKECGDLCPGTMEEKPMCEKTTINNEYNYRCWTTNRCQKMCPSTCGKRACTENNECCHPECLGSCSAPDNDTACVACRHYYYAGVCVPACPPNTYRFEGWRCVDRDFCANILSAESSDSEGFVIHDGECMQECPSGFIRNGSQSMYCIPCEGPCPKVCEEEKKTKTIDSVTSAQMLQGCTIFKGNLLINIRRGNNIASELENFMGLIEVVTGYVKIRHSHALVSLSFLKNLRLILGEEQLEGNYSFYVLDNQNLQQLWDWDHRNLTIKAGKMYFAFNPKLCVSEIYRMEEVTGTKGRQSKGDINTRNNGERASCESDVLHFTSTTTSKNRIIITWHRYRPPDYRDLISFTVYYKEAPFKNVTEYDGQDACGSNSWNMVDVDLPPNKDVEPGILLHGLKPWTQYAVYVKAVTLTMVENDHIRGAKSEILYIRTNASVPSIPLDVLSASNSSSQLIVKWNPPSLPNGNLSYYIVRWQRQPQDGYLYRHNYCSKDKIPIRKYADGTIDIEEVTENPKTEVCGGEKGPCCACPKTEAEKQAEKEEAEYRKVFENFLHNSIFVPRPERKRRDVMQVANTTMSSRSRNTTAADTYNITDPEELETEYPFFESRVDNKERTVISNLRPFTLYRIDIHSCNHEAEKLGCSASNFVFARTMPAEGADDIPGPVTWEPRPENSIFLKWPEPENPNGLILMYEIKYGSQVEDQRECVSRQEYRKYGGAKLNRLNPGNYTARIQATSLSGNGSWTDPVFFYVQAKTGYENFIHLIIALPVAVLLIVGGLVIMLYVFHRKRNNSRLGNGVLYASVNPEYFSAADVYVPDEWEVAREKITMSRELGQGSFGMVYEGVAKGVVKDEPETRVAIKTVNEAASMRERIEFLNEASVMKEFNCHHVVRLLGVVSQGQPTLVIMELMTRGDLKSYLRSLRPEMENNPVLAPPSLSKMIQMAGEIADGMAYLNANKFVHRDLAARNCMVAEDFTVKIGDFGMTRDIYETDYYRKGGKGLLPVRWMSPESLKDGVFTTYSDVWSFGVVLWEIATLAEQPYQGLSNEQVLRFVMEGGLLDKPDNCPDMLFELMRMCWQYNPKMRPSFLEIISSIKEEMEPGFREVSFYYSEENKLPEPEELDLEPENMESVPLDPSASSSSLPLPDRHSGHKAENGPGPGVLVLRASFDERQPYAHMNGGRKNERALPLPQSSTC

| IC50 [µM] | Structure (SMILES) |
| --- | --- |
| ≤ 0.5 | COC[C@@H]1COc2c(CN3C(=O)N(c4ccc(C5(C(F)(F)F)CC5)cc4)C(=O)C3(C)C)ccnc2N1 [Compound 72, (R)-1-((3-(methoxymethyl)-3,4-dihydro-2H-pyrido[3,2-b][1,4]oxazin-8-yl)methyl)-5,5-dimethyl-3-(4-(1-(trifluoromethyl)cyclopropyl)phenyl) imidazolidine-2,4-dione] |
| ≤ 0.5 | CC1(C)C(=O)N(c2ccc(OC(F)(F)F)c(NC(=O)CN3CCOCC3)c2)C(=O)N1Cc1ccnc2c1CC(=O)N2 [Compound 75, N-(5-(4,4-dimethyl-2,5-dioxo-3-((2-oxo-2,3-dihydro-1H-pyrrolo[2,3-b]pyridin-4-yl)methyl)imidazolidin-1-yl)-2-(trifluoromethoxy)phenyl)-2-morpholinoacetamide] |
| > 10 | CC(C)(C)Cn1ccc(N2C(=O)N(Cc3ccnc4c3CC(=O)N4)C(C)(C)C2=O)cc1=O [Compound 79, 5,5-dimethyl-3-(1-neopentyl-2-oxo-1,2-dihydropyridin-4-yl)-1-((2-oxo-2,3-dihydro-1H-pyrrolo[2,3-b]pyridin-4-yl)methyl)imidazolidine-2,4-dione] |
| 0.5 to 2 | CC(CS(C)(=O)=O)Nc1cc(CN2C(=O)N(c3ccc(C4(C(F)(F)F)CC4)cc3)C(=O)C2(C)C)ccn1 (stereo not shown) [Compound 140, 5,5-dimethyl-1-((2-((1-(methylsulfonyl)propan-2-yl)amino)pyridin-4-yl)methyl)-3-(4-(1-(trifluoromethyl)cyclopropyl)phenyl) imidazolidine-2,4-dione] |
| 0.5 to 2 | CC(C)Nc1cc(CN2C(=O)N(c3ccc(C4(C#N)CC4)cc3)C(=O)C2(C)C)ccn1 [Compound 144, 1-(4-(3-((2-(isopropylamino)pyridin-4-yl)methyl)-4,4-dimethyl-2,5-dioxoimidazolidin-1-yl)phenyl)cyclopropane-1-carbonitrile] |
| ≤ 0.5 | CC(C)Nc1cc(CN2C(=O)N(c3ccc(C4(C#N)CC4(C)C)cc3)C(=O)C2(C)C)ccn1 (stereo not shown) [Compound 145, 1-(4-(3-((2-(isopropylamino)pyridin-4-yl)methyl)-4,4-dimethyl-2,5-dioxoimidazolidin-1-yl)phenyl)-2,2-dimethylcyclopropane-1-carbonitrile] |
| ≤ 0.5 | C[C@H](CC#N)Nc1cc(CN2C(=O)N(c3ccc(C4(C(F)(F)F)CC4)cc3)C(=O)C2(C)C)ccn1 [Compound 147, (R)-3-((4-((5,5-dimethyl-2,4-dioxo-3-(4-(1-(trifluoromethyl)cyclopropyl)phenyl)imidazolidin-1-yl)methyl)pyridin-2-yl)amino)butanenitrile] |
| ≤ 0.5 | CC1(C)C(=O)N(c2ccc(C3(C(F)(F)F)CC3)cc2)C(=O)N1Cc1ccnc(N[C@H]2[C@@H]3COC[C@@H]32)c1 [Compound 148, 1-((2-(((1R,5S,6r)-3-oxabicyclo[3.1.0]hexan-6-yl)amino)pyridin-4-yl)methyl)-5,5-dimethyl-3-(4-(1-(trifluoromethyl)cyclopropyl)phenyl) imidazolidine-2,4-dione] |
| ≤ 0.5 | CC(C)(C#N)c1ccc(N2C(=O)N(Cc3ccnc(NC4CC4)c3)C(C)(C)C2=O)cc1 [Compound 149, 2-(4-(3-((2-(cyclopropylamino)pyridin-4-yl)methyl)-4,4-dimethyl-2,5-dioxoimidazolidin-1-yl)phenyl)-2-methylpropanenitrile] |
| ≤ 0.5 | COC[C@@H](C)Nc1cc(CN2C(=O)N(c3ccc(C(C)(C)C#N)cc3)C(=O)C2(C)C)ccn1 [Compound 150, (R)-2-(4-(3-((2-((1-methoxypropan-2-yl)amino)pyridin-4-yl)methyl)-4,4-dimethyl-2,5-dioxoimidazolidin-1-yl)phenyl)-2-methylpropanenitrile] |
| 0.5 to 2 | CC(C)(C#N)c1ccc(N2C(=O)N(Cc3ccnc(N[C@H]4CCOC4)c3)C(C)(C)C2=O)cc1 [Compound 152, (S)-2-(4-(4,4-dimethyl-2,5-dioxo-3-((2-((tetrahydrofuran-3-yl)amino)pyridin-4-yl)methyl)imidazolidin-1-yl)phenyl)-2-methylpropanenitrile] |
| 0.5 to 2 | CC(C)(C#N)c1ccc(N2C(=O)N(Cc3ccnc(NCC(F)F)c3)C(C)(C)C2=O)cc1 [Compound 154, 2-(4-(3-((2-((2,2-difluoroethyl)amino)pyridin-4-yl)methyl)-4,4-dimethyl-2,5-dioxoimidazolidin-1-yl)phenyl)-2-methylpropanenitrile] |

More lines, now with the values behind:

| Structure (SMILES) | IC50 [µM] |
| --- | --- |
| CC1(C)C(=O)N(c2ccc(C3(C#N)CC3)c(F)c2)C(=O)N1Cc1ccnc2c1CC(=O)N2 [Compound 71, 1-(4-(4,4-dimethyl-2,5-dioxo-3-((2-oxo-2,3-dihydro-1H-pyrrolo[2,3-b]pyridin-4-yl)methyl)imidazolidin-1-yl)-2-fluorophenyl)cyclopropane-1-carbonitrile] | 0.5 to 2 |
| CC1(C)C(=O)N(c2ccc(OC(F)(F)F)c(N3CCOCC3)c2)C(=O)N1Cc1ccnc2c1CC(=O)N2 [Compound 74, 5,5-dimethyl-3-(3-morpholino-4-(trifluoromethoxy)phenyl)-1-((2-oxo-2,3-dihydro-1H-pyrrolo[2,3-b]pyridin-4-yl)methyl)imidazolidine-2,4-dione] | ≤ 0.5 |
| CC1(C)C(=O)N(c2ccc(C#N)c(C(F)(F)F)c2)C(=O)N1Cc1ccnc2c1CC(=O)N2 [Compound 76, 4-(4,4-dimethyl-2,5-dioxo-3-((2-oxo-2,3-dihydro-1H-pyrrolo[2,3-b]pyridin-4-yl)methyl)imidazolidin-1-yl)-2-(trifluoromethyl)benzonitrile] | 2 to 10 |
| CC(C)(C)C(=O)Oc1cc2c(CN3C(=O)N(c4ccc(C5(C(F)(F)F)CC5)cc4)C(=O)C3(C)C)ccnc2[nH]1 [Compound 77, 4-((5,5-dimethyl-2,4-dioxo-3-(4-(1-(trifluoromethyl)cyclopropyl)phenyl)imidazolidin-1-yl)methyl)-1H-pyrrolo [2,3-b]pyridin-2-yl pivalate] | ≤ 0.5 |
| CCOC(=O)N1C(=O)Cc2c(CN3C(=O)N(c4ccc(C5(C(F)(F)F)CC5)cc4)C(=O)C3(C)C)ccnc21 [Compound 78, ethyl 4-((5,5-dimethyl-2,4-dioxo-3-(4-(1-(trifluoromethyl)cyclopropyl)phenyl)imidazolidin-1-yl)methyl)-2-oxo-2,3-dihydro-1H-pyrrolo[2,3-b]pyridine-1-carboxylate] | ≤ 0.5 |
| CC1(C)C(=O)N(c2ccc(C3(C(F)(F)F)CC3)cc2)C(=O)N1Cc1ccnc(NC2CS(=O)(=O)C2)c1 [Compound 141, 1-((2-((1,1-dioxidothietan-3-yl)amino)pyridin-4-yl)methyl)-5,5-dimethyl-3-(4-(1-(trifluoromethyl)cyclopropyl)phenyl) imidazolidine-2,4-dione] | 0.5 to 2 |
| CC1(C)C(=O)N(c2ccc(C3(C(F)(F)F)CC3)cc2)C(=O)N1Cc1ccnc(N[C@H]2C[C@H]2F)c1 [Compound 142, 1-((2-(((1S,2R)-2-fluorocyclopropyl)amino)pyridin-4-yl)methyl)-5,5-dimethyl-3-(4-(1-(trifluoromethyl)cyclopropyl)phenyl)imidazolidine-2,4-dione] | ≤ 0.5 |
| CC(C)Nc1cc(CN2C(=O)N(c3ccc(C(C)(C)C#N)nc3)C(=O)C2(C)C)ccn1 [Compound 143, 2-(5-(3-((2-(isopropylamino)pyridin-4-yl)methyl)-4,4-dimethyl-2,5-dioxoimidazolidin-1-yl)pyridin-2-yl)-2-methylpropanenitrile] | 0.5 to 2 |
| CC1(C)C(=O)N(c2ccc(C3(C(F)(F)F)CC3)cc2)C(=O)N1Cc1ccnc(NC2CCN(S(C)(=O)=O)C2)c1 (stereo not shown) [Compound 146, 5,5-dimethyl-1-((2-((1-(methylsulfonyl)pyrrolidin-3-yl)amino)pyridin-4-yl)methyl)-3-(4-(1-(trifluoromethyl)cyclopropyl)phenyl) imidazolidine-2,4-dione] | 0.5 to 2 |
| C[C@@H](CC#N)Nc1cc(CN2C(=O)N(c3ccc(C(C)(C)C#N)cc3)C(=O)C2(C)C)ccn1 [Compound 151, (S)-3-((4-((3-(4-(2-cyanopropan-2-yl)phenyl)-5,5-dimethyl-2,4-dioxoimidazolidin-1-yl)methyl)pyridin-2-yl)amino)butanenitrile] | 0.5 to 2 |
| CC(C)(C#N)c1ccc(N2C(=O)N(Cc3ccnc(NC4CCOCC4)c3)C(C)(C)C2=O)cc1 [Compound 153, 2-(4-(4,4-dimethyl-2,5-dioxo-3-((2-((tetrahydro-2H-pyran-4-yl)amino)pyridin-4-yl)methyl)imidazolidin-1-yl)phenyl)-2-methylpropanenitrile] | ≤ 0.5 |
| CC1(Nc2cc(CN3C(=O)N(c4ccc(C(C)(C)C#N)cc4)C(=O)C3(C)C)ccn2)CC1 [Compound 155, 2-(4-(4,4-dimethyl-3-((2-((1-methylcyclopropyl)amino)pyridin-4-yl)methyl)-2,5-dioxoimidazolidin-1-yl)phenyl)-2-methylpropanenitrile] | ≤ 0.5 |
| COCCC(C)Nc1cc(CN2C(=O)N(c3ccc(C(C)(C)C#N)cc3)C(=O)C2(C)C)ccn1 (stereo not shown) [Compound 156, 2-(4-(3-((2-((4-methoxybutan-2-yl)amino)pyridin-4-yl)methyl)-4,4-dimethyl-2,5-dioxoimidazolidin-1-yl)phenyl)-2-methylpropanenitrile] | ≤ 0.5 |

Source: patent US20250145585A1, “HETEROCYCLIC INHIBITORS OF IGF-1R FOR TREATMENT OF DISEASE” (HORIZON THERAPEUTICS IRELAND DAC, priority 2023, published 2025)
